What was measured:
ApNEAAT1 (ACYPI008971) = target: T1, ApNEAAT1 (ACYPI008971) (Acyrthosiphon pisum, UniProt A0A8R1W427); test: competition with radiolabelled proline uptake in Xenopus oocytes; type: cell-based; conditions: pH 5.5, Na+-free, room temperature, 10 mM competitor
T1 construct: cDNA in pcDNA3.1 or pCS2+, cRNA injected into Xenopus laevis oocytes; SLC36-related AAAP transporter; I161 in TM3
T1 sequence (A0A8R1W427 1-463): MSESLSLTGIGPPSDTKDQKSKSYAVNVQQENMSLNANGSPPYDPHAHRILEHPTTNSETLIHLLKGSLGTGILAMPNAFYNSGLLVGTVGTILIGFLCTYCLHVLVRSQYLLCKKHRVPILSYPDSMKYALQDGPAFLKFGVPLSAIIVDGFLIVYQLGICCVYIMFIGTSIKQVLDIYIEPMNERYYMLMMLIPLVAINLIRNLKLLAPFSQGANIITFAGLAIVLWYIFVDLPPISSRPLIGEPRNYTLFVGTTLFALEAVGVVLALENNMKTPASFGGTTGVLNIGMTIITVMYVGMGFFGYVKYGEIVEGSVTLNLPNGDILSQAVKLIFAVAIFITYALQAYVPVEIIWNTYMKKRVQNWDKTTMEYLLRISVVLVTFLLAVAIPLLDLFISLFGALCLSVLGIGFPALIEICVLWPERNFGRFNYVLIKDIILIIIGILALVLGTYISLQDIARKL

PAT2 (rat slc36a2) [1] = target: T2, PAT2 (rat slc36a2) (Rattus norvegicus, UniProt Q8K415); test: trans-stimulation of [3H]proline efflux from Xenopus oocytes; type: cell-based; design: wild type in pSPORT, cRNA injected into Xenopus laevis oocytes; conditions: 10 mM extracellular alanine, Na+-free, pH 5.5, 10 min
PAT2 (rat slc36a2) [2] = target: T2, PAT2 (rat slc36a2); conditions: 0.1 to 1 mM proline, Na+-free, pH 5.5, -30 mV; H+ symport
[3] = substrate: O=C(O)[C@@H]1CCCN1; test: cells, lysate or membranes; conditions: pH 5.5, Na+-free, room temperature, 40 min, labelled compound
[4] = also direct uptake at 10 µM (Figure 4A)

T2 sequence (Q8K415 whole entry): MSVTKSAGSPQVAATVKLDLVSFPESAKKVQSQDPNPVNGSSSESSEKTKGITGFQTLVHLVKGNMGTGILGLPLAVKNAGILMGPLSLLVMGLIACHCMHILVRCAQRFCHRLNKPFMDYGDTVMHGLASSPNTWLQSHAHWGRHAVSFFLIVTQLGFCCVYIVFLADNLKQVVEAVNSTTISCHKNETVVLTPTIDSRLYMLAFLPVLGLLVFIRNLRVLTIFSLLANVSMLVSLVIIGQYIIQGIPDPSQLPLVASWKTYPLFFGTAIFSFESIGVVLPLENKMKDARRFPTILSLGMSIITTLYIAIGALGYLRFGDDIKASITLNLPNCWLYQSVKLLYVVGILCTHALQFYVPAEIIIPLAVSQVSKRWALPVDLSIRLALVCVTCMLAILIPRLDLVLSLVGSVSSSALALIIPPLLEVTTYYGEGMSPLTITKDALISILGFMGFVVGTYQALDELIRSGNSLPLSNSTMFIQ

C[C@H](N)C(=O)O [Ala, alanine]
% control proline uptake at 10 mM (ApNEAAT1 (ACYPI008971); [4]): smaller dipolar L- and D-amino acids (including proline, alanine, serine, cysteine, and glycine)
trans-stimulation of [3H]proline efflux from Xenopus oocytes (PAT2 (rat slc36a2) [1]): In PAT2-expressing oocytes, alanine trans-stimulation of [3H]proline efflux was evident

N[C@@H](CS)C(=O)O [Cys, cysteine]
% control proline uptake at 10 mM (ApNEAAT1 (ACYPI008971); also trans-stimulates [3H]proline efflux (Figure 4D)): Cysteine is thus demonstrated to be an ApNEAAT1 substrate by its ability to trans-stimulate

O=C(O)[C@H]1CCCN1 [D-proline]
% control proline uptake at 10 mM (ApNEAAT1 (ACYPI008971)): small NEAAs (such as glycine and L- and D-proline, serine, alanine, and cysteine)

O=C(O)[C@@H]1CCCN1 [Pro, proline]
two-electrode voltage clamp of Xenopus oocytes, proline-induced inward current (PAT2 (rat slc36a2) [2]): Proline-associated inward current in PAT2-expressing but not ApNEAAT1-expressing or uninjected (control) oocytes

N[C@@H](CO)C(=O)O [Ser, serine]
% control proline uptake at 10 mM (ApNEAAT1 (ACYPI008971); [4]): smaller dipolar L- and D-amino acids (including proline, alanine, serine, cysteine, and glycine)

C[C@@H](O)[C@H](N)C(=O)O [Thr, threonine]
% control proline uptake at 10 mM (ApNEAAT1 (ACYPI008971); weak): weaker interactions with amino acids of slightly larger side-chain (e.g., threonine)

B1: ApNEAAT1 (ACYPI008971) (Acyrthosiphon pisum) (protein)
chain: MSESLSLTGIGPPSDTKDQKSKSYAVNVQQENMSLNANGSPPYDPHAHRILEHPTTNSETLIHLLKGSLGTGILAMPNAFYNSGLLVGTVGTILIGFLCTYCLHVLVRSQYLLCKKHRVPILSYPDSMKYALQDGPAFLKFGVPLSAIIVDGFLIVYQLGICCVYIMFIGTSIKQVLDIYIEPMNERYYMLMMLIPLVAINLIRNLKLLAPFSQGANIITFAGLAIVLWYIFVDLPPISSRPLIGEPRNYTLFVGTTLFALEAVGVVLALENNMKTPASFGGTTGVLNIGMTIITVMYVGMGFFGYVKYGEIVEGSVTLNLPNGDILSQAVKLIFAVAIFITYALQAYVPVEIIWNTYMKKRVQNWDKTTMEYLLRISVVLVTFLLAVAIPLLDLFISLFGALCLSVLGIGFPALIEICVLWPERNFGRFNYVLIKDIILIIIGILALVLGTYISLQDIARKL
Km [3]: 179 ± 33 µM

Reference: article PMC6690024, “Trading amino acids at the aphid–Buchnera symbiotic interface” (Proceedings of the National Academy of Sciences of the …, 2019)
